The numbers were not newly measured in patent publication US4220642A, “Vasoactive lung polypeptides” (priority 1978, dated 1980), which cites them from elsewhere.

Data set [1] relates to rat stomach strip, rat colon. As to conditions: rat stomach strip and colon.
In data set [2] the test system is guinea pig trachea, ileum, gallbladder, pulmonary artery, "lung". As to conditions: trachea (F2 α).

For the compound Prostaglandin F2 α, in data set [1], the “contraction of rat smooth-muscle organs by prostaglandins” value (“contraction of rat smooth-muscle organs” below) is on record as “contracting”. Also, in data set [2], the “contraction of guinea pig smooth-muscle organs by prostaglandins” value is given as “contracts”. For the same compound, the “contraction of chick rectum by prostaglandins” value (shortened to “contraction of chick rectum”) in the data set with chick rectum is listed as “contracting”.
Take `CCCCC[C@H](O)/C=C/[C@H]1[C@H](O)CC(=O)[C@@H]1CCCCCCC(=O)O` [Prostaglandin E1]: the “contraction of rat smooth-muscle organs” value in data set [1] is listed as “contract”. In addition, in data set [2], the “contraction of guinea pig smooth-muscle organs by prostaglandins” value is recorded as “contract”. Further, the “contraction of chick rectum” value with chick rectum is “contract”.
Turning to `CCCCC[C@H](O)/C=C/[C@H]1[C@H](O)CC(=O)[C@@H]1C/C=C\CCCC(=O)O` [Prostaglandin E2], the “contraction of rat smooth-muscle organs” value in data set [1] is reported as “contract”. Also, the “contraction of guinea pig smooth-muscle organs by prostaglandins” value in data set [2] is recorded as “contract”. Further, the “contraction of chick rectum” value in the data set on chick rectum is “contract”.
